Measurements reported in ChEMBL document CHEMBL5523669, “Sialyl LewisX glycomimetics bearing an extended anionic chain targeting E- and P- selectin binding sites” (Bioorg Med Chem, 2024).
pIC50: −log10 of the molar value. Calls of active or inactive are those of the source. No cut-off for these calls is given here.

Key:
[1] = biological target: T1, E-selectin (Homo sapiens) (UniProt P16581); assay: Reduction in human HL-60 cell adhesion in E-Selectin Fc coated plates at 0.1 to 500 uM measured after 1 hr incubation by Cell-selectin adhesion assay; type: cell-based; settings: filed as antagonist, dose 0.1-500 µM
T1 sequence (whole entry): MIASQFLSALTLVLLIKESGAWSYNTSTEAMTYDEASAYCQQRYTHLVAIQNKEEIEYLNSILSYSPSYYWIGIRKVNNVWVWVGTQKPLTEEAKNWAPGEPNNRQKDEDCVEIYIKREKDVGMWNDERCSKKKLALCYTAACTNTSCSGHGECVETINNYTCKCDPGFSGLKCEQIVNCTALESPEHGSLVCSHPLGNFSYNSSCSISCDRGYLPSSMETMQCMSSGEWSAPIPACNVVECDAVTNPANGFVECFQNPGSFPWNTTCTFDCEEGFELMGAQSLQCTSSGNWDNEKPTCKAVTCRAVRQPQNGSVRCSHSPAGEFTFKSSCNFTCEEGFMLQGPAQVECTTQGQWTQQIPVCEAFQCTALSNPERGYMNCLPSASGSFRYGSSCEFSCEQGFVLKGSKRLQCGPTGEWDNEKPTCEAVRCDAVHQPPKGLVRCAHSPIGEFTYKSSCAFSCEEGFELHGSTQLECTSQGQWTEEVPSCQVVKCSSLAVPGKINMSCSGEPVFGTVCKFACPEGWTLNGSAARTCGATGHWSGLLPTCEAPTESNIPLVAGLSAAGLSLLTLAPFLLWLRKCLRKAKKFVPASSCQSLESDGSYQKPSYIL

[2] = biological target: T2, P-selectin (Homo sapiens, UniProt P16109); assay: Antagonist activity at recombinant human P-selectin assessed as inhibition of P-selection binding to homodimer human PSGL-1-Fc interaction measured after 30 mins by surface plasmon resonance (SPR) spectroscopy
T2 sequence (P16109 whole entry): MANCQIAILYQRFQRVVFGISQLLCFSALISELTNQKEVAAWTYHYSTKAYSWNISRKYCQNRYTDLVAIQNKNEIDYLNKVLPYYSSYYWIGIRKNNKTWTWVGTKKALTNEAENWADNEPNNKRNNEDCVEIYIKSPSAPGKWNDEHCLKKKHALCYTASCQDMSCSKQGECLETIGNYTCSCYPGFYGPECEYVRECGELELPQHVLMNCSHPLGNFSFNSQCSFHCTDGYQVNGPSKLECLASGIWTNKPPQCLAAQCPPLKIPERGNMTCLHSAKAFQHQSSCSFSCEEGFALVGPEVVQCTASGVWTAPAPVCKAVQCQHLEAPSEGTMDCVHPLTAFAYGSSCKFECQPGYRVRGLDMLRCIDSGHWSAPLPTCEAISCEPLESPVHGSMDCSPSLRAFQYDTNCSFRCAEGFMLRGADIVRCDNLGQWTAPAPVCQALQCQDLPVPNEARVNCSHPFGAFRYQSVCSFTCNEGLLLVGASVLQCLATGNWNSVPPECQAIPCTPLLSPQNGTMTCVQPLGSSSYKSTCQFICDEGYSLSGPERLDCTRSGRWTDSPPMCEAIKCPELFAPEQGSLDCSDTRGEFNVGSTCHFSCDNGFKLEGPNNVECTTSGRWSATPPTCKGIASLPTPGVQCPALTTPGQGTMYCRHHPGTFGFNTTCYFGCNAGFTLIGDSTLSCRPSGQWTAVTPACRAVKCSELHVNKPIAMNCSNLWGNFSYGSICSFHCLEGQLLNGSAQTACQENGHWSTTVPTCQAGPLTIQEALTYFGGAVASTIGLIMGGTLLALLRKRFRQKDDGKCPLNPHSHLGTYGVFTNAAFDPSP

[3] = system: HL-60; assay: Reduction in human HL-60 cell adhesion in E-Selectin Fc coated plates measured after 1 hr incubation by Cell-selectin adhesion assay; type: cell-based; settings: filed as antagonist, dose 0.1-500 µM

Row | Activity [1] | pIC50 [2] | Compound | Activity [3]
1 | Active | 3.54 | CC(C)OC(=O)[C@H](O[C@@H]1O[C@H](CO)[C@H](OC(=O)c2ccccc2)[C@H](O[C@H](Cc2ccccc2)C(=O)O)[C@H]1OC(=O)c1ccccc1)[C@@H](O[C@@H]1O[C@@H](C)[C@@H](O)[C@@H](O)[C@@H]1O)C(=O)O[C@@H](C)CCCn1cc(CCCCC(=O)Nc2ccc(OP(=O)(O)O)cc2)nn1 | –
2 | Active | – | CC(=O)N[C@H]1[C@H]([C@H](O)[C@H](O)CO)O[C@@](O[C@H]2[C@@H](O)[C@@H](CO)O[C@@H](O[C@@H]([C@H](O[C@@H]3O[C@@H](C)[C@@H](O)[C@@H](O)[C@@H]3O)[C@H](C=O)NC(C)=O)[C@H](O)CO)[C@@H]2O)(C(=O)O)C[C@@H]1O | Dose-Dependent Effect
3 | – | 3.79 | CC(C)OC(=O)[C@H](O[C@@H]1O[C@@H](C)[C@@H](O)[C@@H](O)[C@@H]1O)[C@@H](O[C@@H]1O[C@H](CO)[C@H](O)[C@H](O[C@H](Cc2ccccc2)C(=O)O)[C@H]1OC(=O)c1ccccc1)C(=O)OC(C)C | –
